From article PMC5505648 (Bioorganic & medicinal chemistry, 2017)
Each block holds one compound with its values, some of them ahead of it.

Key:
Hairless (Hr) gene = assay: Brain expression of Hairless; format: in vivo; details: mice, brain Hr expression ED50
[1] = Oral bioavailability / serum pharmacokinetics study in mice; format: in vivo; details: C57Bl/6, mouse; for clearance: iv
[2] = in vivo
Ester-to-amide = format: physicochemical; details: for Rearrangement of ester to amide product: polar, protic solvents / aqueous HPLC conditions; for Rearrangement of ester to amide in dosing vehicle: 50% DMSO in saline

Amount of sobetirome from cleavage of 3 in blood, oral vs intravenous dosing ([1]; in vivo): 2.4 fold
clearance ([1]; in vivo): 28 mL/min/kg
Fold increase of sobetirome exposure (AUC) in brain vs equimolar sobetirome ([2]; male, C57Bl/6, mouse): ~ 2 fold
Fold reduction of parent drug exposure in heart vs equimolar sobetirome ([2]; male, C57Bl/6, mouse): ~ 3 fold
Fold reduction of parent drug exposure in kidney vs equimolar sobetirome ([2]; male, C57Bl/6, mouse): ~ 2 fold
Fold reduction of parent drug exposure in liver vs equimolar sobetirome ([2]; male, C57Bl/6, mouse): ~ 2 fold
Fold reduction of parent drug exposure in serum vs equimolar sobetirome ([2]; male, C57Bl/6, mouse): ~ 3.5 fold
Time of Cmax / Tmax in all tissues analyzed ([2]; mouse, ip): 15 to 30 min
Species in chromatogram on re-sampling the same solution (Ester-to-amide; aqueous HPLC sample, approximately 30 minutes later): showed only the amide 3b
Fraction of ester converted to amide (Ester-to-amide; aqueous HPLC sample/run conditions, within 5 minutes of running): approximately 25%
Compound: Cc1cc(OCC(=O)O[C@@H](C)CN)cc(C)c1Cc1ccc(O)c(C(C)C)c1 [Compound 3, (S)-1-aminopropan-2-yl 2-(4-(4-hydroxy-3-isopropylbenzyl)-3,5-dimethylphenoxy)acetate]
Fold increase in potency compared to sobetirome (Hairless (Hr) gene): ~2 fold

Rearrangement of ester to amide in dosing vehicle (Ester-to-amide): do not rearrange to amides
Compound: Cc1cc(OCC(=O)OC(CN)C(C)C)cc(C)c1Cc1ccc(O)c(C(C)C)c1 (centres unmarked) [Compound 11, 1-amino-3-methylbutan-2-yl 2-(4-(4-hydroxy-3-isopropylbenzyl)-3,5-dimethylphenoxy)acetate]
Rearrangement of ester to amide product (Ester-to-amide): did not display rearrangement to the amide product

Rearrangement of ester to amide in dosing vehicle (Ester-to-amide): do not rearrange to amides
Compound: Cc1cc(OCC(=O)OC2(C(F)(F)F)CNC2)cc(C)c1Cc1ccc(O)c(C(C)C)c1 [Compound 15]
Rearrangement of ester to amide product (Ester-to-amide): did not display rearrangement to the amide product

clearance ([1]; serum, 3.05 μmol/kg): 8 mL/min/kg
Compound: Cc1cc(OCC(=O)O)cc(C)c1Cc1ccc(O)c(C(C)C)c1 [Compound 1, Sobetirome, reference compound]

Second part, the compound before the results:

Compound: CNCC(C)OC(=O)COc1cc(C)c(Cc2ccc(O)c(C(C)C)c2)c(C)c1 (centres unmarked) [Compound 7, 1-(methylamino) propan-2-yl 2-(4-(4-hydroxy-3-isopropylbenzyl)-3,5-dimethylphenoxy) acetate]
Rearrangement of ester to amide product (Ester-to-amide): freely rearrange to their corresponding tertiary amides

Compound: 2-(methylamino)ethyl 2-(4-(4-hydroxy-3-methylbenzyl)-3,5-dimethylphenoxy)acetate [Compound 13]
Rearrangement of ester to amide product (Ester-to-amide): freely rearrange to their corresponding tertiary amides

Compound: CNCC(OC(=O)COc1cc(C)c(Cc2ccc(O)c(C(C)C)c2)c(C)c1)C(C)C (centres unmarked) [Compound 12, 3-methyl-1-(methylamino)butan-2-yl 2-(4-(4-hydroxy-3-isopropylbenzyl)-3,5-dimethylphenoxy)acetate]
Rearrangement of ester to amide in dosing vehicle (Ester-to-amide): do not rearrange to amides
Rearrangement of ester to amide product (Ester-to-amide): did not display rearrangement to the amide product
